Experimental data published in patent publication US20250288682A1, “DEVELOPMENT OF NANO-ENCAPSULATED FATTY-ACYL CONJUGATED COLCHICINE” (priority 2022, published 2025).
Like-named read-outs stand apart in the source and are kept apart here.

Assays:
[1] = tested on: tubulin; conditions: cited from earlier work
[2] = for behenic acid conjugated colchicine in plasma: rats, 1 mg/kg
Description: The route of administration and the PK profile for liposomes colchicine were evaluated. The scaled-up formulation of liposomes colchicine, 15 mL, ghost formulation, non-liposomal behenic acid-conjugated colchicine and free colchicine were evaluated to determine the PK profile of liposomes colchicine, as a function of route of administration, intra-peritoneal injection and oral gavage. This preliminary in vivo study is designed to estimate PK parameters of liposomes colchicine and mode of administration of the liposomes. This study was performed using 10 rats divided into 4 groups as specified in FIG. 14. Rats received colchicine or liposomes-colchicine at 1 mg/kg by intra-peritoneal injection or oral gavage. Two and 24 hours after administration, blood was collected for a quantification of plasmatic colchicine and liposomes by liquid chromatography-mass spectrometry (LC-MS/MS). […] All plasma samples were analyzed for colchicine and colchicine-behenic acid conjugate.
LC/MS samples were prepared as per standard plasma extraction protocol.

[3] = cited from earlier work
[4] = tested on: HUVEC endothelial cells; conditions: 24 hour stimulation, 0.1 to 10000 nM
Description: Cell toxicity was tested on RAW264.7 macrophages and HUVEC endothelial cells. All cells were plated on 96-wells plate (2000 and 8000 cells per well, respectively) and exposed to colchicine or controls three days after (FIGS. 11A and 11B). Cells were exposed to commercialized colchicine (#9754, Sigma-Aldrich), behenic-acid colchicine or liposomal nanoparticles-colchicine (liposomes-colchicine, generated by the nanoSTAR Institute) as well as their respective controls (free media, ethanol/DMSO, ghost liposomes) from 0.1 to 10000 nM. After 24 hours of stimulation, media was removed and replaced with MTT solution (M2128, Sigma-Aldrich) at 0.375 mg/mL for 4 hours at 37° C. Viable cells produced dark blue formazan products. These products were dissolved in an isopropanol/Triton X-100, 10%/HCl solution, and read at 575 nm for absorbance density values to determine the cell viability. The percentage of the viable cells was calculated using the following formula: (%)=[100×(colchicine compound absorbance)/(own control absorbance)].

[5] = tested on: microtubules, HUVEC endothelial cells; conditions: 100 nM, 24 hours
Description: (§1) The efficiency of colchicine to bind microtubules and alter their polymerization was evaluated on HUVEC endothelial cells (FIG. 12) and J774 macrophages (FIG. 13). Cells were plated, respectively, at 5000 and 10000 cells/cm2 three days before colchicine stimulation. […] After 24 hours of stimulation, cells were fixed with paraformaldehyde 4% for 10 minutes. Blocking was performed with 10% normal goat serum with 0.2% Triton X-100. The immunocytometry staining used an α/β-tubulin antibody (#2148, Cell Signaling, 1/100, overnight, +4° C.) followed with a goat anti-rabbit antibody Alexa 555 (#A21429, Invitrogen, 1/200, 1 hour, room temperature). DAPI was used for nuclear staining. Pictures at 20× magnification were taken using AxioVision software SE64 4.9.1 (Zeiss).

[6] = tested on: microtubules, J774 macrophages; conditions: 100 nM, 24 hours
Description: as §1

[7] = rats treated with behenic acid conjugated colchicine

In the case of `COc1cc2c(c(OC)c1OC)-c1ccc(OC)c(=O)cc1[C@@H](NC(=O)CO)CC2` [colchifoline, N-(2-hydroxyacetyl) colchicine], the “tubulin binding compared with colchicine” value [1] is given as “stronger”.
In the case of `CCCCCCCCCCCCCCCCCCCCCC(=O)OCC(=O)N[C@H]1CCc2cc(OC)c(OC)c(OC)c2-c2ccc(OC)c(=O)cc21` [AI-3-25], the colchifoline in plasma [2, 7] is reported as “found”, the “free colchicine as a metabolite in plasma” value [2, 7] is reported as “not found” and the “behenic acid conjugated colchicine in plasma” value ([2]; IP, 2 hours) is reported as “presence”. The “behenic acid conjugated colchicine in plasma” value ([2]; oral gavage) was “diminished levels”.
For `COc1cc2c(c(OC)c1OC)-c1ccc(OC)c(=O)cc1[C@@H](NC(C)=O)CC2` [Colchicine, colchicine], the “log P” value [3] is given as “about 1.5”, the “Biopharmaceutical Classification System class” value ([3]; high solubility and low permeability) is given as “class III” and the “cell viability (MTT)” value [4] is given as “decreased cell viability”. For the same compound, the “microtubule polymerization, cell division and cell shape” value [5] was “significantly dysregulated microtubule polymerization, cell division and cell shape” and the “microtubule polymerization, cell division and cell shape” value [6] was “significantly dysregulated microtubule polymerization, cell division and cell shape”.
